Measurements from patent US9273057B2 (Bristol-Myers Squibb Company, priority 2012, dated 2016).

Target: CK2A1 (CK2α/β) (Homo sapiens, UniProt P68400)
Assay: CK2 kinase assay, CK2A1 (CK2α/β)
Type: biochemical
Settings: Table A; read-out: CK2A1 (CK2α/β) (IC50)

Chain of CK2A1 (CK2α/β) (P68400 whole entry, species assumed): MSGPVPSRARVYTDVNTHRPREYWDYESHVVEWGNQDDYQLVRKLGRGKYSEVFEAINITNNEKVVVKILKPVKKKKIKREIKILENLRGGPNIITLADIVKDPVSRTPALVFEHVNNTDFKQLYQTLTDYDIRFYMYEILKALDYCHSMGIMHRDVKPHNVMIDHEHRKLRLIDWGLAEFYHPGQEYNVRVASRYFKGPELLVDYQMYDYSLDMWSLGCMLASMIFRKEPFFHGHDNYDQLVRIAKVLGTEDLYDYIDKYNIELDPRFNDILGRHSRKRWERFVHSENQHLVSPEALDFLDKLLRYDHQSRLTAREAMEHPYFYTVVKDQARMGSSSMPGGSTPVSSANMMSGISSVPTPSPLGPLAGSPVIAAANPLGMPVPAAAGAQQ
Chain of CK2A1 (CK2α/β) (P67870 whole entry partner, species assumed): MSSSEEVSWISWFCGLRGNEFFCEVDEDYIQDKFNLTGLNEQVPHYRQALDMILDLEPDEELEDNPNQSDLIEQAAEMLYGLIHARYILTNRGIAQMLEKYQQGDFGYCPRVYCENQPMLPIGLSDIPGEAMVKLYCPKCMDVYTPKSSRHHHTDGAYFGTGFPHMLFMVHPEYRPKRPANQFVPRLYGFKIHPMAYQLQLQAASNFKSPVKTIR

Row | Structure (SMILES) | IC50 [nM]
1 | CCNc1nc(Nc2cc(C#N)cc(N[C@@H]3CCN(C(=O)OC)C[C@H]3O)c2Cl)nn2c(C#N)cnc12 [Example 846, (3R,4R)-methyl 4-((2-chloro-5-cyano-3-((7-cyano-4-(ethylamino)imidazo[2,1-f][1,2,4]triazin-2-yl)amino)phenyl)amino)-3-hydroxypiperidine-1-carboxylate] | 17.3
2 | CC(=O)N[C@H]1CCN(Cc2cc(C#N)cc(Nc3nc(NC4CC4)c4ncc(C#N)n4n3)c2Cl)C1 [Example 473, N-[(3S)-1-[(2-chloro-5-cyano-3-{[7-cyano-4-(cyclopropylamino)imidazo[2,1-f][1,2,4]triazin-2-yl]amino}phenyl)methyl]pyrrolidin-3-yl]acetamide] | 0.56
3 | C[C@@H]1CN(c2cc(C#N)cc(Nc3nc(NC4CC4)c4ncc(C#N)n4n3)c2Cl)C[C@H]1O (racemic) [Example 20, (+/−) 2-((2-chloro-5-cyano-3-((3S,4R)-3-hydroxy-4-methyl-1-pyrrolidinyl)phenyl)amino)-4-(cyclopropylamino)imidazo [2,1-f][1,2,4]triazine-7-carbonitrile] | 4.9
4 | N#Cc1cc(Nc2nc(NC3CC3)c3ncc(C#N)n3n2)c(Cl)c(C2CCN(C3CCC3O)CC2)c1 (single isomer, unassigned) [Example 646, Cis and trans 2-((2-chloro-5-cyano-3-(1-(2-hydroxycyclobutyl)piperidin-4-yl)phenyl)amino)-4-(cyclopropylamino)imidazo[2,1-f][1,2,4]triazine-7-carbonitrile] | 1.48
5 | CCNc1nc(Nc2cc(C#N)cc(N3CC(N4CCN(C)CC4)C3)c2Cl)nn2c(C#N)cnc12 [Example 360, 2-((2-chloro-5-cyano-3-(3-(4-methylpiperazin-1-yl)azetidin-1-yl)phenyl)amino)-4-(ethylamino)imidazo[2,1-f][1,2,4]triazine-7-carbonitrile] | 0.73
6 | CC1(O)CN(C2CN(c3cc(C#N)cc(Nc4nc(NC5CC5)c5ncc(C#N)n5n4)c3Cl)C2)C1 [Example 168, 2-((2-chloro-5-cyano-3-(3-hydroxy-3-methyl-1,3′-biazetidin-1′-yl)phenyl)amino)-4-(cyclopropylamino)imidazo [2,1-f][1,2,4]triazine-7-carbonitrile] | 0.68
7 | N#Cc1cc(Nc2nc(NC3CC3)c3ncc(C#N)n3n2)c(F)c(N2CCN(C3CCOC3)CC2)c1 (stereo not shown) [Example 554, 2-((5-cyano-2-fluoro-3-(4-(tetrahydrofuran-3-yl)piperazin-1-yl)phenyl)amino)-4-(cyclopropylamino)imidazo[2,1-f][1,2,4]triazine-7-carbonitrile] | 5.03
8 | Cc1nn(CCN(C)C)c(C)c1-c1cc(C#N)cc(Nc2nc(NC3CC3)c3ncc(C#N)n3n2)c1Cl [Example 719, 2-[(2-chloro-5-cyano-3-{1-[2-(dimethylamino)ethyl]-3,5-dimethyl-1H-pyrazol-4-yl}phenyl)amino]-4-(cyclopropylamino)imidazo [2,1-f][1,2,4]triazine-7-carbonitrile] | 7.41
9 | CCNc1nc(Nc2ccc3c(c2)c(C#N)cn3C2CCN(C3CN(C(=O)OC(C)(C)C)C3)CC2)nn2c(C#N)cnc12 [Example 831, tert-butyl 3-(4-(3-cyano-5-((7-cyano-4-(ethylamino)imidazo[2,1-f][1,2,4]triazin-2-yl)amino)-1H-indol-1-yl)piperidin-1-yl)azetidine-1-carboxylate] | 0.71
10 | N#Cc1cc(Nc2nc(NC3CC3)c3ncc(C#N)n3n2)c(Cl)c(N2CCC3(CC2)CNC3)c1 [Example 792, 2-((2-chloro-5-cyano-3-(2,7-diazaspiro[3.5]nonan-7-yl)phenyl)amino)-4-(cyclopropylamino)imidazo[2,1-f][1,2,4]triazine-7-carbonitrile] | 1.03
11 | N#Cc1cc(Nc2nc(NC3CC3)c3ncc(C#N)n3n2)c(Cl)c(C2CCNCC2)c1 [Example 208, 2-((2-chloro-5-cyano-3-(piperidin-4-yl)phenyl)amino)-4-(cyclopropylamino)imidazo[2,1-f][1,2,4]triazine-7-carbonitrile] | 0.57
12 | CCNc1nc(Nc2ccc3c(c2)c(C#N)cn3C2CCN(C3COCC3O)CC2)nn2c(C#N)cnc12 (racemic) [Example 825, (+/−)-2-((3-cyano-1-(1-(4-hydroxytetrahydrofuran-3-yl)piperidin-4-yl)-1H-indol-5-yl)amino)-4-(ethylamino)imidazo[2,1-f][1,2,4]triazine-7-carbonitrile] | 0.3
13 | N#Cc1cc(Nc2nc(NC3CC3)c3ncc(C#N)n3n2)c(Cl)c(N2CCC3(CC2)CN(CC(N)=O)C3)c1 [Example 800, 2-(7-(2-chloro-5-cyano-3-((7-cyano-4-(cyclopropylamino)imidazo[2,1-f][1,2,4]triazin-2-yl)amino)phenyl)-2,7-diazaspiro[3.5]nonan-2-yl)acetamide] | 2.14
14 | N#Cc1cc(Nc2nc(NC3CC3)c3ncc(C#N)n3n2)c(OCCN2CCOCC2)cc1OCCN1CCOCC1 [Example 422, 2-((5-cyano-2,4-bis(2-morpholinoethoxy)phenyl)amino)-4-(cyclopropylamino)imidazo[2,1-f][1,2,4]triazine-7-carbonitrile] | 2.73
15 | COC(=O)Nc1cc(Nc2nc(NC3CC3)c3ncc(C#N)n3n2)c(Cl)c(N2CC(N3CCC(OC)CC3)C2)c1 [Example 204, methyl (4-chloro-3-((7-cyano-4-(cyclopropylamino)imidazo[2,1-f][1,2,4]triazin-2-yl)amino)-5-(3-(4-methoxy-1-piperidinyl)-1-azetidinyl)phenyl)carbamate] | 0.87
16 | CCNc1nc(Nc2cc(C#N)cc(C3CNC3)c2Cl)nn2c(C#N)cnc12 [Example 367, 2-((3-(azetidin-3-yl)-2-chloro-5-cyanophenyl)amino)-4-(ethylamino)imidazo[2,1-f][1,2,4]triazine-7-carbonitrile] | 1.17
17 | COCC(O)CN1CCN(c2cc(C(F)F)cc(Nc3nc(NC4CC4)c4ncc(C#N)n4n3)c2Cl)CC1 (racemic) [Example 250, (+/−) 2-((2-chloro-5-(difluoromethyl)-3-(4-(2-hydroxy-3-methoxypropyl)-1-piperazinyl)phenyl)amino)-4-(cyclopropylamino)imidazo[2,1-f][1,2,4]triazine-7-carbonitrile] | 0.73
18 | CC(=O)N1CC(N2CCC(c3cc(C#N)cc(Nc4nc(NC5CC5)c5ncc(C#N)n5n4)c3F)CC2)C1 [Example 637, 2-((3-(1-(1-acetylazetidin-3-yl)piperidin-4-yl)-2-fluoro-5-cyanophenyl)amino)-4-(cyclopropylamino)imidazo[2,1-f][1,2,4]triazine-7-carbonitrile] | 4.79
19 | COC1CN(CCCc2cc(Cl)c(Nc3nc(NC4CC4)c4ncc(C#N)n4n3)cc2C#N)C1 [Example 570, 2-((2-chloro-5-cyano-4-(3-(3-methoxyazetidin-1-yl)propyl)phenyl)amino)-4-(cyclopropylamino)imidazo[2,1-f][1,2,4]triazine-7-carbonitrile] | 1.91

More lines, in order of falling IC50, values ahead:

Row | IC50 [nM] | Structure (SMILES)
20 | 4.37 | CC(CC(C)c1cc(Cl)c(Nc2nc(NC3CC3)c3ncc(C#N)n3n2)cc1C#N)NCCC(F)(F)F (single isomer, unassigned) [Example 735, 2-[(2-chloro-5-cyano-4-{4-[(3,3,3-trifluoropropyl)amino]pentan-2-yl}phenyl)amino]-4-(cyclopropylamino)imidazo [2,1-f][1,2,4]triazine-7-carbonitril]
21 | 3.28 | COC1CN(CC(=O)N2CCN(c3cc(C#N)cc(Nc4nc(NC5CC5)c5ncc(C#N)n5n4)c3Cl)CC2)C1 [Example 585, 2-[(2-chloro-5-cyano-3-{4-[2-(3-methoxyazetidin-1-yl)acetyl]piperazin-1-yl}phenyl)amino]-4-(cyclopropylamino)imidazo [2,1-f][1,2,4]triazine-7-carbonitrile]
22 | 2.94 | CC(C)(O)CNCC1CN(c2cc(C#N)cc(Nc3nc(NC4CC4)c4ncc(C#N)n4n3)c2Cl)CCO1 (stereo not shown) [Example 709, 2-{[2-chloro-5-cyano-3-(2-{[(2-hydroxy-2-methylpropyl)amino]methyl}morpholin-4-yl)phenyl]amino}-4-(cyclopropylamino)imidazo[2,1-f][1,2,4]triazine-7-carbonitrile]
23 | 1.55 | N#Cc1cnc2c(NC3CC3)nc(Nc3cc(C(F)F)cc(N4CCC(C(=O)O)CC4)c3Cl)nn12 [Example 545, 1-(2-chloro-3-((7-cyano-4-(cyclopropylamino)imidazo[2,1-f][1,2,4]triazin-2-yl)amino)-5-(difluoromethyl)phenyl)piperidine-4-carboxylic acid]
24 | 0.8 | CCNc1nc(Nc2ccc3c(c2)c(C#N)cn3C2CCN(CC(O)CF)CC2)nn2c(C#N)cnc12 (racemic) [Example 824, (+/−)-2-((3-cyano-1-(1-(3-fluoro-2-hydroxypropyl)piperidin-4-yl)-1H-indol-5-yl)amino)-4-(ethylamino)imidazo[2,1-f][1,2,4]triazine-7-carbonitrile]
25 | 0.74 | CCNc1nc(Nc2cc(C#N)cc(N3CC(C)[C@H](NC(=O)OC)C3)c2Cl)nn2c(C#N)cnc12 (stereo in doubt) [Example 336, methyl ((3S,4R)-1-(2-chloro-5-cyano-3-((7-cyano-4-(ethylamino)imidazo[2,1-f][1,2,4]triazin-2-yl)amino)phenyl)-4-methyl-3-pyrrolidinyl)carbamate]
26 | 0.59 | COC(=O)N[C@H]1C[C@H](O)CN(c2cc(C#N)cc(Nc3nc(NC4CC4)c4ncc(C#N)n4n3)c2Cl)C1 (racemic) [Example 17, (+/−) methyl ((3S,5S)-1-(2-chloro-5-cyano-3-((7-cyano-4-(cyclopropylamino)imidazo [2,1-f][1,2,4]triazin-2-yl)amino)phenyl)-5-hydroxy-3-piperidinyl)carbamate]
27 | 0.51 | N#Cc1cc(Nc2nc(NC3CC3)c3ncc(C#N)n3n2)c(Cl)c(N2CCN(C(=O)OCC3CCCO3)CC2)c1 (stereo not shown) [Example 534, (tetrahydrofuran-2-yl)methyl 4-(2-chloro-5-cyano-3-((7-cyano-4-(cyclopropylamino)imidazo[2,1-f][1,2,4]triazin-2-yl)amino)phenyl)piperazine-1-carboxylate]
28 | 0.4 | N#Cc1cc(Nc2nc(NC3CC3)c3ncc(C#N)n3n2)c(Cl)c(C2(F)CNC2)c1 [Example 659, 2-((2-chloro-5-cyano-3-(3-fluoroazetidin-3-yl)phenyl)amino)-4-(cyclopropylamino)imidazo[2,1-f][1,2,4]triazine-7-carbonitrile]
